The results in this text go back to patent US20120053182A1, “METHODS OF ALLEVIATING OR TREATING SIGNS AND/OR SYMPTOMS ASSOCIATED WITH MODERATE TO SEVERE PARKINSON'S DISEASE” (SCHERING CORPORATION, priority 2009, published 2012).

Structures are written as SMILES. Read-outs that look alike come from different tables or passages of the source.

Data set [1] has as its system patients suffering from Parkinson's disease. Put plainly: Clinical trial in patients with moderate to severe Parkinson's disease receiving L-dopa therapy. Type of data set: in vivo, human. On the procedure:
A clinical trial was carried out using 253 patients suffering from Parkinson's disease and receiving L-dopa therapy.
These patients were continued on their L-dopa therapy and randomized to receive in addition either a placebo (n=49), a composition administered orally BID in an amount providing 1 mg of the compound of Formula I (n=49), a composition administered orally BID in an amount providing 2 mg of the compound of Formula I (n=49), a composition administered orally BID in an amount providing 5 mg of the compound of Formula I (n=49), or a composition administered orally BID in an amount providing 10 mg of the compound of Formula I (n=57). This treatment was continued for 12 weeks while the patients kept a diary recording the “Off-time” periods, “On-time” periods (recording whether “On-time” was accompanied by dyskinesia or troubling dyskinesia) and their total amount of sleep time. These patients were also interviewed clinically and were evaluated as well in accordance with the UPDRS rating scale, as well as for when, and the duration of, sleep attacks experienced during the study. Blood chemistry was followed clinically at regular intervals.
Moreover, with reference to FIG. 3, assessment of patients was made using the Unified Parkinson's Disease Rating Scale (UPDRS) following several weeks of administration. […] With reference to FIG. 3, for example, UPDRS, part III scores were improved by showing a decrease of at least about 3 points below the baseline score at the start of the study.

Data set [2] has as its system akathisia induced by administration of Haldol. Put plainly: Haldol-induced akathisia in healthy volunteers. The data set is classed as in vivo, human. Particulars: composition providing about 10 mg, FIG. 4. The source says: It is believed that a composition which provides an effective amount of the compound of Formula I will also prevent feelings of restlessness, of example, Haldol-induced akathesia.

A further data set concerns the target T1, A2a receptors (Homo sapiens, UniProt P29274).
T1 construct: PET scans of a human brain were obtained; from tissue; host or cells: brain of living healthy human volunteers (in vivo PET)
Put plainly: PET scan receptor site occupancy study in healthy human volunteers. The data set is classed as in vivo. The procedure:
In a separate study with healthy human volunteers, and with reference to FIG. 5, PET scans of a human brain were obtained after IV administration to a subject of a composition intravenous administration of the compound of Formula II which had been labeled with ^11C-radio-isotope and then after an interval subsequent intravenous administered the compound of Formula I.
This study was carried out using 18 subjects. Capsules containing a composition providing the compound of Formula I (unlabelled) in amounts of 10, 50, or 200 mg were also administered to a subset of test subjects prior to injection of the radio-labeled compound of Formula II. Using the information obtained from the PET scan regarding the extent, location, and inhibition of radiotracer binding permitted calculation of binding potentials for the compound of Formula I. The test subjects were also evaluated for plasma levels of the compound of Formula I during the study. […] These studies also indicate that the compound of Formula I has a selectivity for the A2a receptor site of 20,000:1 relative to binding at A1, A2b, and A3 receptor sites. This study is consistent with a therapeutic level of plasma concentration being provided by administering a composition orally which provides a human subject to whom it is administered with from at least about 2 mg of the compound of Formula I to about 10 mg of the compound of Formula I and preferably 5 mg of the compound of Formula I. It is believed that BID dosing of a composition providing from about 5 mg to about 50 mg of the compound of Formula I will provide at least about 50% receptor site occupancy for at least about 12 hours/day in at least about 80% of the human population and at least about 80% receptor site occupancy for at least about 18 hours/day in at least about 75% of the population.

Data set [3] in a line: Bioavailability by age or sex in healthy human volunteers. The data set is classed as in vivo. Particulars: composition used in the patient study.
Data set [4] can be described thus: Pharmacokinetics after oral administration to healthy human volunteers. The conditions noted are these: composition providing about 5 mg, serum; for AUC: human, po, 5 mg, healthy human volunteers. Type of data set: in vivo.
Where [5] appears, read: at least about 2 mg BID oral, 12 weeks, with L-dopa, patient diary.

T1 sequence (P29274 whole entry): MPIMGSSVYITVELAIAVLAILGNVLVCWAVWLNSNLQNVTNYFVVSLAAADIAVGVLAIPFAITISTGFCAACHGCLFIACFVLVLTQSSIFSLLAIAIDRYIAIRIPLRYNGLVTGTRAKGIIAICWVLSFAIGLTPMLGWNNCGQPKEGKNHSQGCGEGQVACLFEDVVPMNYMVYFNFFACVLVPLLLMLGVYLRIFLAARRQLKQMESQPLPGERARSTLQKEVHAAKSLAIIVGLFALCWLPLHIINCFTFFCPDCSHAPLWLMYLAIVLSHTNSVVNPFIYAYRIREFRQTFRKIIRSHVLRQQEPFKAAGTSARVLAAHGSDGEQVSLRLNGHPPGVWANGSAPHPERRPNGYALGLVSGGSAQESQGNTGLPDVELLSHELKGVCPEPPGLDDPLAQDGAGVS

`COCCOc1ccc(N2CCN(CCN3N=CC4c5nc(-c6ccco6)nn5C(N)=NC43)CC2)cc1` (centres unmarked) [compound of Formula I]: in data set [1] (1, 2, 5 or 10 mg BID oral, 12 weeks, versus placebo group), the “reports of common adverse events: Parkinsonism; somnolence; dyskinesia” value is reported as “no more frequency than was reported in the placebo group”. The “UPDRS part IV scores” value in data set [1] (amount sufficient to maintain steady state serum level of at least about 50 ng/ml) is given as “not accompanied by an increase”. For the same compound, the “decrease of UPDRS part III score below baseline” value in data set [1] (amount sufficient to maintain steady state serum level of at least about 50 ng/ml, FIG. 3, 2 hours post dose) was “at least 3 points”. Besides, the “proportion of "On-time" with dyskinesia or other motor complications” value in data set [1] (at least about 2 mg BID oral, 12 weeks, with L-dopa) is “no rise”. Also, in data set [1] (setting [5]), the “periods of "Off-time"” value was “decrease” and the “periods of "On-time"” value was “improvement”. Besides, in data set [1] (at least about 5 mg BID oral), the “average daily patient "Off-time" periods” value is on record as “decrease”; the “average daily patient "On-time" periods” value was “increase”; the “objectional side effects, for example, dyskinesia, somnolence, or insomnia” value was “not accompanied by objectional side effects”. For the same compound, in data set [1] (at least about 5 mg BID oral, throughout the course of the study), the UPDRS score result is “improvement in UPDRS score which is maintained throughout the course of the study”. Further, the “induction of sleep attacks” value in data set [1] (effective amount, patient assessment by clinicians) is reported as “not associated with induction of sleep attacks”. Also, in data set [1] (from about 2 mg BID to about 10 mg BID, FIG. 2), the “patient sleep patterns (total daily sleep time)” value was “does not significantly adversely effect patient sleep patterns”. Besides, in data set [2], the “suppression of Haldol-induced akathisia” value is “successful in suppressing akathisia”. In addition, the receptor site occupancy entry at A2a receptors (BID dosing about 5 mg to about 50 mg, for at least about 12 hours/day in at least about 80% of the human population) is on record as “at least 50%”. For the same compound, the receptor site occupancy result at A2a receptors (BID dosing about 5 mg to about 50 mg, for at least about 18 hours/day in at least about 75% of the population) is reported as “at least 80%”. Besides, the “brain distribution by PET scan” value at A2a receptors (human brain, 11C-labelled compound of Formula II as radiotracer) was “high concentrations of the compound of Formula I in regions of the brain known to contain high levels of A2a receptors”. This compound also came in with a receptor occupancy at 0.05 µg/mL at A2a receptors (human, plasma concentrations in excess of about 50 ng/ml, believed to be Emax) of about 90%. The “plasma concentration at 50% receptor site occupancy” value at A2a receptors (on average, PET, humans) came to 6 ng/mL. The receptor site occupancy result at A2a receptors (plasma concentration levels exceeding about 25 ng/mL in humans) is given as “high level of receptor site occupancy”. The “differences in bioavailability (AUC or Cmax) between groups divided by age or sex” value in data set [3] was “no statistically significant differences”. Moreover, the Cmax in data set [4] (average across healthy human volunteers) lay in the range of 112 to 130 ng/mL. The AUC in data set [4] (AUC to time serum level drops below detectable limit, read-out: AUC(tf)) was 336 to 457 ng·h/mL. Moreover, the AUC in data set [4] (read-out: AUC values measured from t=0 to 1 hr.) fell in the range of 352 to 478 ng·h/mL.
